From patent publication US20230203043A1, “NOVEL IMIDAZOPYRAZINE DERIVATIVES” (Hoffmann-La Roche Inc., priority 2020, published 2023) come the findings set out here.

Where a name gives a salt, the structure may show the parent alone.

One assay deals with Acinetobacter baumannii ATCC17961. Kind of assay: Antimicrobial susceptibility testing: 90% growth inhibitory concentration (IC90) determination in Iso-Sensitest broth, OD600 growth. In kind it is cell-based. The settings on record: Acinetobacter baumannii, ATCC17961, 16 h, read-out: A. baumannii ATCC 17961 IC90 (uM), strain ATCC 17961, OD600 growth over 16 h. The essentials: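 Twofold compound dilutions (e.g. 50 to 0.097 μM final) in Iso-Sensitest broth with ~5×10^(5) CFU/ml, 35±2 °C. OD600 read every 20 min over 16 h; IC90 from growth inhibition during logarithmic phase.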
Broadly, the IC90 is the point of the concentration-response curve where the effect stands at 90%. As for `Cc1cc(Nc2nccn3c(-c4c[nH]nc4C(F)(F)F)cnc23)ccc1C(=O)N1CCN(C(=O)C2(O)CCNCC2)CC1` [Example 460, formic acid; [4-(4-hydroxypiperidine-4-carbonyl)piperazin-1-yl]-[2-methyl-4-[[3-[3-(trifluoromethyl)-1H-pyrazol-4-yl]imidazo[1,2-a]pyrazin-8-yl]amino]phenyl]methanone], the IC90 came out at 0.896 µM.
On to `CCc1cc(Nc2nccn3c(-c4cn(CC(F)F)nc4C(F)(F)F)cnc23)ccc1C(=O)NCCCNC(=O)[C@H](C)N` [Example 628, (S)-N-(3-(2-aminopropanamido)propyl)-4-((3-(1-(2,2-difluoroethyl)-3-(trifluoromethyl)-1H-pyrazol-4-yl)imidazo[1,2-a]pyrazin-8-yl)amino)-2-ethylbenzamide formate], for which the IC90 amounted to 0.195 µM.
On the same count and under the same terms, the figure for `CN(C)CCNC(=O)CNC(=O)c1ccc(Nc2nccn3c(-c4cn(CC#N)nc4C(F)(F)F)cnc23)cc1Cl` [Example 693, 2-chloro-4-[[3-[1-(cyanomethyl)-3-(trifluoromethyl)pyrazol-4-yl]imidazo[1,2-a]pyrazin-8-yl]amino]-N-[2-[2-(dimethylamino)ethylamino]-2-oxo-ethyl]benzamide formate] is 0.358 µM; for `Cc1cc(Nc2nccn3c(-c4cn(CC#N)nc4C(F)(F)F)cnc23)cc(F)c1C(=O)N[C@H](C)CNC(=O)CN` [Example 689, (R)-N-(1-(2-aminoacetamido)propan-2-yl)-4-((3-(1-(cyanomethyl)-3-(trifluoromethyl)-1H-pyrazol-4-yl)imidazo[1,2-a]pyrazin-8-yl)amino)-2-fluoro-6-methylbenzamide formate] it is 0.351 µM; for `CC#CCn1cc(-c2cnc3c(Nc4ccc(C(=O)NCC(=O)NCCN)c(Cl)c4)nccn23)c(C(F)(F)F)n1` [Example 89, N-[2-(2-aminoethylamino)-2-oxoethyl]-4-[[3-[1-but-2-ynyl-3-(trifluoromethyl)pyrazol-4-yl]imidazo[1,2-a]pyrazin-8-yl]amino]-2-chlorobenzamide formate] it is 0.573 µM.
As for `CCc1cc(Nc2nccn3c(-c4c[nH]nc4C(F)(F)F)cnc23)ccc1C(=O)NCCCNC(=O)CCCN` [Example 215, N-[3-(4-aminobutanoylamino)propyl]-2-ethyl-4-[[3-[3-(trifluoromethyl)-1H-pyrazol-4-yl]imidazo[1,2-a]pyrazin-8-yl]amino]benzamide formate], the IC90 is 0.394 µM.

The assay is the same for the next values; noted with them: Acinetobacter baumannii, ATCC17961, 16 h, strain ATCC 17961, OD600 growth over 16 h, read-out: A. baumannii ATCC 17961 IC90.
For `CCc1cc(Nc2nccn3c(-c4cn(CC#N)nc4C(F)(F)F)cnc23)ccc1C(=O)NCC(=O)NCCN` [Example 765, N-[2-(2-aminoethylamino)-2-oxo-ethyl]-4-[[3-[1-(cyanomethyl)-3-(trifluoromethyl)pyrazol-4-yl]imidazo[1,2-a]pyrazin-8-yl]amino]-2-ethyl-benzamide], the IC90 is 0.895 µM.
For the molecule `C#CCNCCCNC(=O)c1ccc(Nc2nccn3c(-c4c[nH]nc4C(F)(F)F)cnc23)cc1CC` [Example 184, 2-ethyl-N-[3-(prop-2-ynylamino)propyl]-4-[[3-[3-(trifluoromethyl)-1H-pyrazol-4-yl]imidazo[1,2-a]pyrazin-8-yl]amino]benzamide], the IC90 amounted to 0.4 µM.
For `CCc1cc(Nc2nccn3c(-c4cn(COC)nc4C(F)F)cnc23)ccc1C(=O)N1CCN(C(=O)[C@@H](C)N)CC1` [Example 778, (R)-2-amino-1-(4-(4-((3-(3-(difluoromethyl)-1-(methoxymethyl)-1H-pyrazol-4-yl)imidazo[1,2-a]pyrazin-8-yl)amino)-2-ethylbenzoyl)piperazin-1-yl)propan-1-one], the IC90 was found to be 1.03 µM.
The same measure, in the same setting: the figure for `CCc1cc(Nc2nccn3c(-c4c[nH]nc4C(F)(F)F)cnc23)ccc1C(=O)NCCCNC(=O)[C@H](C)NC(=O)C(F)(F)F` [Example 759, (S)-2-ethyl-N-(3-(2-(2,2,2-trifluoroacetamido)propanamido)propyl)-4-((3-(3-(trifluoromethyl)-1H-pyrazol-4-yl)imidazo[1,2-a]pyrazin-8-yl)amino) benzamide] is 0.693 µM; for `CCc1cc(Nc2nccn3c(-c4cn(CC#N)nc4C(F)(F)F)cnc23)ccc1C(=O)NCCNC(=O)[C@H](C)N` [Example 493, (S)-N-(2-(2-aminopropanamido)ethyl)-4-((3-(1-(cyanomethyl)-3-(trifluoromethyl)-1H-pyrazol-4-yl)imidazo[1,2-a]pyrazin-8-yl)amino)-2-ethylbenzamide formate] it is 0.129 µM; for `CCc1cc(Nc2nccn3c(-c4c[nH]nc4C(F)(F)F)cnc23)ccc1C(=O)NCCCN` [Example 365, N-(3-aminopropyl)-2-ethyl-4-[[3-[3-(trifluoromethyl)-1H-pyrazol-4-yl]imidazo[1,2-a]pyrazin-8-yl]amino]benzamide hydrochloride] it is 1.4 µM.
The same measure, in the same setting: the figure for `N#CCn1cc(-c2cnc3c(Nc4ccc(C(=O)NCCOCCN)c(Cl)c4)nccn23)c(C(F)(F)F)n1` [Example 257, N-[2-(2-aminoethoxy)ethyl]-2-chloro-4-[[3-[1-(cyanomethyl)-3-(trifluoromethyl)pyrazol-4-yl]imidazo[1,2-a]pyrazin-8-yl]amino]benzamide] is 0.37 µM; for `CCc1cc(Nc2nccn3c(-c4cn(CCF)nc4C(F)F)cnc23)ccc1C(=O)N1CCN(C(=O)[C@H](C)N)CC1` [Example 779, (S)-2-amino-1-(4-(4-((3-(3-(difluoromethyl)-1-(2-fluoroethyl)-1H-pyrazol-4-yl)imidazo[1,2-a]pyrazin-8-yl)amino)-2-ethylbenzoyl)piperazin-1-yl)propan-1-one] it is 1.03 µM.
In the case of `Cc1cc(Nc2nccn3c(-c4c[nH]nc4C(F)(F)F)cnc23)ccc1C(=O)N1CCN(C(=O)[C@@H](C)N)CC1` [Example 334, (2R)-2-amino-1-[4-[2-methyl-4-[[3-[3-(trifluoromethyl)-1H-pyrazol-4-yl]imidazo[1,2-a]pyrazin-8-yl]amino]benzoyl]piperazin-1-yl]propan-1-one], the IC90 came out at 0.782 µM.
`C[C@H](N)C(=O)N1CCN(C(=O)c2ccc(Nc3nccn4c(-c5cn(CC#N)nc5C(F)(F)F)cnc34)cc2Cl)CC1` [Example 187, 2-[4-[8-[4-[4-[(2S)-2-aminopropanoyl]piperazine-1-carbonyl]-3-chloroanilino]imidazo[1,2-a]pyrazin-3-yl]-3-(trifluoromethyl)pyrazol-1-yl]acetonitrile]: the IC90 amounted to 0.159 µM.

The same assay, now with this note: strain ATCC 17961, OD600 growth over 16 h, read-out: A. baumannii ATCC 17961 IC90.
Regarding `N#CCn1cc(-c2cnc3c(Nc4ccc(C(=O)N5CCN(C(=O)N6CC[C@@H](N)C6)CC5)c(Cl)c4)nccn23)c(C(F)(F)F)n1` [Example 179, 2-[4-[8-4-[4-[(3R)-3-aminopyrrolidine-1-carbonyl]piperazine-1-carbonyl]-3-chloroanilino]imidazo[1,2-a]pyrazin-3-yl]-3-(trifluoromethyl) pyrazol-1-yl]acetonitrile formate], the IC90 stood at 0.181 µM.
Same read-out and setting: the figure for `N#CCn1cc(-c2cnc3c(Nc4ccc(C(=O)N5CCN(C(=O)NCCN)CC5)c(Cl)c4)nccn23)c(C(F)(F)F)n1` [Example 258, N-(2-aminoethyl)-4-[2-chloro-4-[[3-[1-(2-cyanomethyl)-3-(trifluoromethyl)pyrazol-4-yl]imidazo[1,2-a]pyrazin-8-yl]amino]benzoyl] piperazine-1-carboxamide formate] is 0.398 µM.
